According to PMC8861568, “Identification of (Z)-2-benzylidene-dihydroimidazothiazolone derivatives as tyrosinase inhibitors: Anti-melanogenic effects and in silico studies” (Computational and Structural Biotechnology Journal, 2022):
Like-named read-outs stand apart in the source and are kept apart here.

What was measured:
[1] = target: mushroom tyrosinase (mTYR); assay: Mushroom tyrosinase inhibition assay; assay type: biochemical, Agaricus bisporus; parameters: Tyrosinase inhibition (%): dose or concentration left out as unconfirmed; settings: for IC50: mushroom tyrosinase; for IC50 / Tyrosinase inhibition (%): L-tyrosine substrate; for Tyrosinase inhibition (%): […] μM of compound
Procedure: The tyrosinase inhibitory activity assays on the synthesized DHIT derivatives 1a – 1 k was performed using mushroom tyrosinase (mTYR), as previously described with minor modification. […] The optical densities of dopachrome produced during incubation were measured using a microplate reader (VersaMax™, Molecular Devices, Sunnyvale, CA, USA) at 492 nm. […] All experiments were conducted in triplicate. To calculate the tyrosinase inhibitory activities, the following formula was used: % inhibition = [(1− (A/B)) × 100], where A is test sample optical density and B is the optical density of the non-treated control.
IC50 values were calculated by plotting linear regression curves of percentage inhibitions versus derivative concentrations. The negative control was obtained by adding dimethyl sulfoxide (DMSO) instead of a DHIT derivative.

[2] = target: mushroom tyrosinase; parameters: method as in PMID 29521165; settings: cited from earlier work

For `COc1ccc(/C=c2\sc3n(c2=O)CCN=3)cc1` [Compound 1 g, (Z)-2-(4-Methoxybenzylidene)-5,6-dihydroimidazo[2,1-b]thiazol-3(2H)-one], the IC50 [1] was > 100 µM.
For `COc1ccc(/C=c2\sc3n(c2=O)CCN=3)c(OC)c1` [Compound 1 h, (Z)-2-(2,4-Dimethoxybenzylidene)-5,6-dihydroimidazo[2,1-b]thiazol-3(2H)-one], the IC50 [1] was > 100 µM.
With `COc1cc(/C=c2\sc3n(c2=O)CCN=3)cc(OC)c1OC` [Compound 1 k, (Z)-2-(3,4,5-Trimethoxybenzylidene)-5,6-dihydroimidazo[2,1-b]thiazol-3(2H)-one] the IC50 [1] was > 100 µM.
In the case of `O=c1/c(=C/c2ccc(O)cc2)sc2n1CCN=2` [Compound 1a, (Z)-2-(4-Hydroxybenzylidene)-5,6-dihydroimidazo[2,1-b]thiazol-3(2H)-one], the “mushroom tyrosinase inhibition compared with kojic acid” value [1] is reported as “inhibited mTYR more than kojic acid”, the IC50 [1] is reported as 36.1 ± 3.9 µM and the “fold stronger tyrosinase inhibitor than kojic acid” value ([1]; ratio of IC50 values) is reported as 2.3 fold.
With `O=c1/c(=C/c2ccc(O)c(O)c2)sc2n1CCN=2` [Compound 1c, (Z)-2-(3,4-Dihydroxybenzylidene)-5,6-dihydroimidazo[2,1-b]thiazol-3(2H)-one] the IC50 [1] was > 100 µM.
With `COc1cc(/C=c2\sc3n(c2=O)CCN=3)ccc1O` [Compound 1d, (Z)-2-(4-Hydroxy-3-methoxybenzylidene)-5,6-dihydroimidazo[2,1-b]thiazol-3(2H)-one] the “Tyrosinase inhibition (%)” value ([1]; […] µM) was 7.83 ± 2.29% and the IC50 [1] was > 100 µM.
For `CCOc1cc(/C=c2\sc3n(c2=O)CCN=3)ccc1O` [Compound 1e, (Z)-2-(3-Ethoxy-4-hydroxybenzylidene)-5,6-dihydroimidazo[2,1-b]thiazol-3(2H)-one], the “Tyrosinase inhibition (%)” value ([1]; […] µM) was 3.90 ± 2.65% and the IC50 [1] was > 100 µM.
For `COc1ccc(/C=c2\sc3n(c2=O)CCN=3)cc1OC` [Compound 1i, (Z)-2-(3,4-Dimethoxybenzylidene)-5,6-dihydroimidazo[2,1-b]thiazol-3(2H)-one], the “Tyrosinase inhibition (%)” value [1] was “low or no mTYR inhibitory activity” and the IC50 [1] was > 100 µM.
In the case of `COc1cc(/C=c2\sc3n(c2=O)CCN=3)cc(OC)c1O` [Compound 1j, (Z)-2-(4-Hydroxy-3,5-dimethoxybenzylidene)-5,6-dihydroimidazo[2,1-b]thiazol-3(2H)-one], the “Tyrosinase inhibition (%)” value [1] is reported as 24.43 ± 1.50% and the IC50 [1] is reported as > 100 µM.
In the case of `[H]/N=C1/NC(=O)C(=Cc2ccc(OC)c(O)c2)S1` [MHY773, (Z)-5-(3-hydroxy-4-methoxybenzylidene)-2-iminothiazolidin-4-one], the IC50 ([2]; diphenolase) is listed as 8.06 µM and the IC50 ([2]; monophenolase) is listed as 2.87 µM.
With `O=c1cc(CO)occ1O` [kojic acid, reference compound] the “Tyrosinase inhibition (%)” value ([1]; […] µM) was 30% and the “Tyrosinase inhibition (%)” value ([1]; listed as KA, […] µM) was 30.26 ± 0.55%.
